1 compound from patent publication US20260263550A1, “METHODS AND COMPOSITIONS FOR TREATING, PREVENTING, INHIBITING, AMELIORATING OR DELAYING THE ONSET OF OPHTHALMIC CONDITIONS” (Stealth BioTherapeutics Inc., priority 2021, published 2026) can be followed below.

Data set [1] is described as follows: 28-day SC study safety endpoints (clinical observations, ophthalmology). Format: in vivo, cynomolgus monkey. How it is done: Male and female cynomolgus monkeys were divided into four groups (Groups 1 to 4). Groups 1 and 4 consisted of five males and five females each and Groups 2 and 3 consisted of three males and three females each. Animals were dosed via SC injection once daily for 28 consecutive days. Group 1 animals received the control article, 0.9% sodium chloride injection, USP (saline). Group 2, 3, and 4 animals received the test article, compound of Formula IIa, at dose levels of 2, 5, and 15 mg/kg/day, respectively. Three males and three females from Groups 1 to 3, and three males and one female from Group 4 were necropsied on Day 29 (terminal necropsy). Two males and two females from Groups 1 and 4 were necropsied on Day 42 (recovery necropsy), after a 13-day treatment-free period. […] At termination, gross observations and organ weights were recorded, and eye/optic nerve tissue samples were collected for microscopic evaluation and biodistribution assays. […]
Body weight. Body weights were measured twice during acclimation (including Day −1), then weekly during the in-life phase (Days 7, 14, 21, 28, 35, and 41) and on the day of corresponding necropsy (Day 29 or Day 42). […]

The subject of data set [2] is iPSC-derived RPE cells from AMD donors. Description: Measurement of mitochondrial function (Seahorse XF Cell Mito Stress Test). It is filed as cell-based, human. The conditions noted are these: 10, 100, 1000 nM, treatment began 24 hours prior to assay, FIGS. 8AA-8AL. The protocol:
Measurement of mitochondrial function. Analysis of mitochondrial function was performed on live iPSC-derived RPE cells from AMD donors (n=3; 2 atrophic with GA, 1 exudative) treated with drug (elamipretide, compound of Formula IIa, or vehicle) as described below and iPSC-derived RPE cells from non-diseased controls (n=2) using the XFe96 Extracellular Flux Analyzer (Agilent Technologies, Santa Clara, California, www.agilent.com) and the Seahorse XF Cell Mito Stress Test (CMST) Kit (Agilent Technologies). iPSC-derived RPE cells were seeded onto a laminin-coated Seahorse XF plates and grown until confluent. Data were normalized by cell count. Drug treatments began 24 hours prior to assay. […]
Cells were stained with DAPI and counted by ImageJ software (National Institute of Health, Bethesda, Maryland, www.nih.gov). […] Oxygen consumption rate was detected under basal conditions followed by the sequential addition of oligomycin, carbonyl cyanide 4-(trifluoromethoxy) phenylhydrazone (FCCP), rotenone, and antimycin A. From these sequential additions, the following parameters can be derived: basal respiration, ATP production, maximal respiration, and spare respiratory capacity.

A short description of data set [3]: Uptake in the retina after 10-day SC dosing, LC-MS/MS. It is filed as in vivo, cynomolgus monkey. The conditions noted are these: male cynomolgus monkeys 1001-1003, SC 5 mg/kg/day for 10 days, left eye, approximately 24 hours after the last dose. The protocol: Administration of Compound of Formula IIa. The test agent (compound of formula IIa) was administered daily via subcutaneous injection into the scapular and mid-dorsal areas for 10 days. The first day of dosing was designated as Day 1. Dose formulations were allowed to warm up at ambient temperature for at least 30 minutes prior to dosing, as appropriate. The animals were temporarily restrained for dose administration and were not sedated. The volume for each dose was administered over 1 (preferred) or 2 (as necessary) separated injections within the designated area. If a designated injection site was not available for a given animal on any day, the next available test site in the rotation was used. The injection area was marked as frequently as required to allow appropriate visualization of administration sites. On the last injection occasion for each quadrant, the last site of injection was circled, and the circled site was collected for necropsy.
Tissue collection, preservation, and analysis. Eye tissue (retina) was collected approximately 24 hours after the last dose on Day 10. […]
Tissue samples were prepared and analyzed by methods similar to those described above in Example 3. In brief, concentrations of test article (compound of Formula IIa) in the retina (ng/g tissue) was determined by LC-MS/MS using Formula IIb as a standard.

Molecules are shown by their SMILES. Several values for one entry are separate records, joined by “and”; a condition that tells them apart may be missing. Identical values can stand only once.

Turning to `Cc1cc(O)cc(C)c1C[C@H](NC(=O)[C@H](N)CCCNC(=N)N)C(=O)N[C@@H](CCCCN)c1nc(Cc2ccccc2)no1.Cl.Cl.Cl` [Formula IIa, (R)-2-amino-N—((S)-1-(((S)-5-amino-1-(3-benzyl-1,2,4-oxadiazol-5-yl)pentyl)amino)-3-(4-hydroxy-2,6-dimethylphenyl)-1-oxopropan-2-yl)-5-guanidinopentanamide], in data set [1] (SC 15 mg/kg/day (Group 4), two females necropsied early on Days 25 and 27), the tolerability of dosing entry is recorded as “not well tolerated”. Besides, the ophthalmology examination findings entry in data set [1] (SC 2, 5, 15 mg/kg/day, Day 24 (Week 4)) is “no compound of Formula IIa-related findings”. Besides, in data set [2], the “mitochondrial function (ATP production; basal respiration; maximal respiration; spare respiratory capacity)” value is “efficacy in improving mitochondrial function”. For the same compound, the “Concentration in Retina at Day 11 (individual subjects)” value in data set [3] is 382 ng/g and 336 ng/g and 126 ng/g.
